From ChEMBL document CHEMBL5512665, “A CARM1 Inhibitor Potently Suppresses Breast Cancer Both In Vitro and In Vivo” (J Med Chem, 2024)
pEC50: −log10 of the molar value. Active and inactive are the calls of the source.

Tests used:
4T1 [1] = assay: Potentiation of etoposide induced antiproliferative activity against mouse 4T1 cells assessed as upregulation of IFIT1 gene expression at 2.5 uM in presence of etoposide by RT-qPCR analysis; assay type: functional, cell-based
MCF7 [2] = assay: Synergistic antiproliferative activity against human MCF7 cells assessed as inhibition of cell growth at 2.5 uM incubated for 7 days in presence of tamoxifen by celltiter 96 aqueous one solution cell proliferation assay; assay type: functional, cell-based; conditions: time 7.0 day
MCF7 [3] = assay: Antitumor activity against human MCF7 cells xenografted in BALB/C mouse assessed as downregulation of C-Myc gene expression at 25 mg/kg,ip administrated every other day for 29 days by RT-qPCR analysis; assay type: functional, organism-based; conditions: time 29.0 day
4T1 [4] = assay: Antitumor activity against mouse 4T1 cells implanted in BALB/C mouse assessed as downregulation of NRIP1 gene expression at 25 mg/kg,ip administrated daily for 14 days by RT-qPCR analysis; assay type: functional, organism-based; conditions: time 14.0 day
MCF7 [5] = assay: Antitumor activity against human MCF7 cells xenografted in BALB/C mouse assessed as downregulation of CCND1 gene expression at 50 mg/kg,ip administrated every other day for 29 days by RT-qPCR analysis; assay type: functional, organism-based; conditions: time 29.0 day
MCF7 [6] = assay: Synergistic antitumor activity against human MCF7 cells xenografted in BALB/C mouse assessed as downregulation of CCND1 gene expression at 25 mg/kg,ip administrated every other day for 15 days in presence of 5 mg/kg tamoxifen oral administration by RT-qPCR analysis; assay type: functional, organism-based; conditions: time 15.0 day
4T1 [7] = assay: Antitumor activity against mouse 4T1 cells implanted in BALB/C mouse assessed as upregulation of CD8A expression at 25 mg/kg,ip administrated daily for 14 days by immunohistochemical staining based analysis; assay type: functional, organism-based; conditions: time 14.0 day
MCF7 [8] = assay: Potentiation of etoposide induced antiproliferative activity against human MCF7 cells assessed as inhibition of cell growth at 2.5 uM incubated for 7 days in presence of etoposide by celltiter 96 aqueous one solution cell proliferation assay; assay type: functional, cell-based; conditions: time 7.0 day
[9] = Toxicity in BALB/C mouse xenografted with human MDA-MB-231 cells assessed as change in kidney morphology at 25 mg/kg,ip administrated daily for 11 days; assay type: organism-based; conditions: in vivo, 264 h, time 11 day
[10] = Toxicity in BALB/C mouse xenografted with human MCF7 cells assessed as change in body weight at 25 mg/kg,ip administrated every other day for 15 days in presence of 5 mg/kg tamoxifen oral administration; assay type: organism-based; conditions: in vivo, 360 h, time 15 day
[11] = Toxicity in BALB/C mouse xenografted with human MCF7 cells assessed as change in liver morphology at 25 mg/kg,ip administrated every other day for 29 days; assay type: organism-based; conditions: in vivo, 696 h, time 29 day
4T1 [12] = assay: Antitumor activity against mouse 4T1 cells implanted in BALB/C mouse assessed as upregulation of CCL5 gene expression at 25 mg/kg,ip administrated daily for 14 days by RT-qPCR analysis; assay type: functional, organism-based; conditions: time 14.0 day
[13] = Toxicity in BALB/C mouse xenografted with human MDA-MB-231 cells assessed as change in lung morphology at 50 mg/kg,ip administrated daily for 11 days; assay type: organism-based; conditions: in vivo, 264 h, time 11 day
4T1 [14] = assay: Antitumor activity against mouse 4T1 cells implanted in BALB/C mouse assessed as upregulation of ISG15 gene expression at 50 mg/kg,ip administrated daily for 14 days by RT-qPCR analysis; assay type: functional, organism-based; conditions: time 14.0 day
4T1 [15] = assay: Antitumor activity against mouse 4T1 cells implanted in BALB/C mouse assessed as downregulation of GREB1 gene expression at 50 mg/kg,ip administrated daily for 14 days by RT-qPCR analysis; assay type: functional, organism-based; conditions: time 14.0 day
MDA-MB-231 [16] = assay: Antitumor activity against human MDA-MB-231 cells xenografted in BALB/C mouse assessed as reduction of tumor size at 25 mg/kg,ip administrated daily for 11 days; assay type: functional, organism-based; conditions: time 11.0 day
4T1 [17] = assay: Antitumor activity against mouse 4T1 cells implanted in BALB/C mouse assessed as downregulation of CCND1 gene expression at 50 mg/kg,ip administrated daily for 14 days by RT-qPCR analysis; assay type: functional, organism-based; conditions: time 14.0 day
HCC1937 = assay: Antiproliferative activity against human HCC1937 cells assessed as reduction in cell growth incubated for 7 days by celltiter 96 aqueous one solution cell proliferation assay; conditions: HCC1937, 168 h
MCF7 [18] = assay: Antitumor activity against human MCF7 cells xenografted in BALB/C mouse assessed as inhibition of tumor growth at 50 mg/kg,ip administrated every other day for 29 days; assay type: functional, organism-based; conditions: time 29.0 day
MDA-MB-231 [19] = assay: Antitumor activity against human MDA-MB-231 cells xenografted in BALB/C mouse assessed as inhibition of tumor growth at 25 mg/kg,ip administrated daily for 11 days; assay type: functional, organism-based; conditions: time 11.0 day
4T1 [20] = assay: Antitumor activity against mouse 4T1 cells implanted in BALB/C mouse assessed as downregulation of PGR gene expression at 25 mg/kg,ip administrated daily for 14 days by RT-qPCR analysis; assay type: functional, organism-based; conditions: time 14.0 day
4T1 [21] = assay: Potentiation of etoposide induced antiproliferative activity against mouse 4T1 cells assessed as upregulation of CCL5 gene expression at 2.5 uM in presence of etoposide by RT-qPCR analysis; assay type: functional, cell-based
MCF7 [22] = assay: Antitumor activity against human MCF7 cells xenografted in BALB/C mouse assessed as downregulation of GREB1 gene expression at 25 mg/kg,ip administrated every other day for 29 days by RT-qPCR analysis; assay type: functional, organism-based; conditions: time 29.0 day
4T1 [23] = assay: Antitumor activity against mouse 4T1 cells implanted in BALB/C mouse assessed as inhibition of tumor weight at 50 mg/kg,ip administrated daily for 14 days; assay type: functional, organism-based; conditions: time 14.0 day
MCF7 [24] = assay: Synergistic antiproliferative activity against human MCF7 cells assessed as downregulation of CCND1 gene expression at 2.5 uM incubated for 6 hrs in presence of fulvestrant by RT-qPCR analysis; assay type: functional, cell-based
MCF7 [25] = assay: Potentiation of etoposide induced antiproliferative activity against human MCF7 cells assessed as upregulation of CCL5 gene expression at 2.5 uM in presence of etoposide by RT-qPCR analysis; assay type: functional, cell-based
4T1 [26] = assay: Potentiation of etoposide induced antiproliferative activity against mouse 4T1 cells assessed as inhibition of cell growth at 2.5 uM incubated for 7 days in presence of etoposide by celltiter 96 aqueous one solution cell proliferation assay; assay type: functional, cell-based; conditions: time 7.0 day
[27] = Toxicity in BALB/C mouse xenografted with human MCF7 cells assessed as change in liver morphology at 50 mg/kg,ip administrated every other day for 29 days; assay type: organism-based; conditions: in vivo, 696 h, time 29 day
4T1 [28] = assay: Potentiation of etoposide induced antitumor activity against mouse 4T1 cells implanted in BALB/C mouse assessed as upregulation of IFIT1 gene expression at 25 mg/kg,ip administrated daily for 12 days in presence of 8 mg/kg etoposide administration by RT-qPCR analysis; assay type: functional, organism-based; conditions: time 12.0 day
MCF7 [29] = assay: Antitumor activity against human MCF7 cells xenografted in BALB/C mouse assessed as downregulation of GREB1 gene expression at 50 mg/kg,ip administrated every other day for 29 days by RT-qPCR analysis; assay type: functional, organism-based; conditions: time 29.0 day
4T1 [30] = assay: Antitumor activity against mouse 4T1 cells implanted in BALB/C mouse assessed as downregulation of TFF1 gene expression at 25 mg/kg,ip administrated daily for 14 days by RT-qPCR analysis; assay type: functional, organism-based; conditions: time 14.0 day
[31] = Toxicity in BALB/C mouse implanted with mouse 4T1 cells assessed as change in liver morphology at 50 mg/kg,ip administrated daily for 14 days; assay type: organism-based; conditions: in vivo, 336 h, time 14 day

Cc1ccc(-c2nc(N3CCN(CCN(C)C)CC3)ncc2-c2ccoc2)cc1.Cl.Cl
Non-Toxic: Activity [9] | Activity [10] | Activity [11] | Activity [13] | Activity [27] | Activity [31]
5.71: pEC50 (HCC1937)
active: Activity (4T1 [1]) | Activity (MCF7 [2]) | Activity (MCF7 [3]) | Activity (4T1 [4]) | Activity (MCF7 [5]) | Activity (MCF7 [6]) | Activity (4T1 [7]) | Activity (MCF7 [8]) | Activity (4T1 [12]) | Activity (4T1 [14]) | Activity (4T1 [15]) | Activity (MDA-MB-231 [16]) | Activity (4T1 [17]) | Activity (MCF7 [18]) | Activity (MDA-MB-231 [19]) | Activity (4T1 [20]) | Activity (4T1 [21]) | Activity (MCF7 [22]) | Activity (4T1 [23]) | Activity (MCF7 [24]) | Activity (MCF7 [25]) | Activity (4T1 [26]) | Activity (4T1 [28]) | Activity (MCF7 [29]) | Activity (4T1 [30])
